Data on three compounds can be found in patent US20250163016A1, “PYRIDINE DERIVATIVE, PREPARATION METHOD THEREFOR AND USE THEREOF” (CHENGDU EASTON BIOPHARMACEUTICALS CO., LTD., priority 2022, published 2025).

Data set [1] is described as follows: Liver microsome stability, rats. It counts as in vitro ADME. Particulars: Rats liver microsomes; for CLint scaled / half-life: rat; for half-life: NADPH, 37° C. How it is done: (§1) A liver microsome in-vitro warm incubation method used liver microsomes, supplemented by an NADPH regeneration system, to simulate physiological environmental conditions in vitro for metabolic reaction, after a certain period of reaction, LC-MS/MS was used to determine prototype drugs and metabolites in a warm incubation solution, and the content was preliminarily analyzed. Studying the liver microsome stability of drugs in different species was crucial for understanding a change process of the drugs in vivo.
(§2) 2.1. Liver Microsomes in Different Species Including Rats, Mice, Humans, Dogs and Monkeys
(§3) According to the requirements of the instructions of a Phase I Metabolic Stability Kit, a liver microsome incubation system was prepared, and according to a sequence, a mixed system of a PBS, liver microsomes, an NADPH regeneration system solution A and an NADPH regeneration system solution B, as well as substances to be tested were added in sequence respectively, and were incubated at 37° C. Each sample was parallelized 3 times, with a sample without an NADPH generation system as a negative control, after 0, 5, 15, 30, 45, and 60 min, equal volumes of pre-cooled acetonitrile were added to terminate the reaction respectively, and the prototype drug content in a warm incubation solution was determined by LC-MS/MS.
A general note: Liver microsomes are vesicles of endoplasmic reticulum, rich in cytochrome P450 enzymes.

Data set [2] can be described thus: Liver microsome stability, humans. The format is in vitro ADME. Particulars: Humans liver microsomes; for CLint scaled / half-life: human; for half-life: NADPH, 37° C. How it is done: as §1, §2, §3
The nature of data set [3]: Pharmacokinetics of oral administration of rats. It counts as in vivo. Particulars: male, rat, SD rats, p.o. 5.0 mg/kg, plasma. On the procedure: With SD rats as tested animals, blood drug concentrations in plasma at different moments after oral administration of the compounds of the present application by the rats in a clarification kit mode were determined using an LC-MS/MS method. Pharmacokinetic parameters of the compounds of the present application in the rats were obtained, and pharmacokinetic characteristics of the compounds were studied.
• SD rats, male, weight 180-220 g, 3 rats per group. The animals were fed in an animal house after being purchased, an adaptation period was at least 3 days, and they were used for tests after passing quarantine.
According to Table 4, each group of rats was given the corresponding tested drugs or positive drugs by gavage, before administration, and 15 min, 30 min, 1 h, 2 h, 4 h, 6 h, 8 h, and 24 h after administration, a fixed volume of blood was collected through eye sockets and placed in an EDTA-K2 anticoagulant tube, centrifuging was carried out at 8000 rpm for 1 min to separate plasma into a centrifuge tube, and the plasma was frozen in a −20° C. refrigerator.
The plasma at each time point stored at −20° C. was taken out, then acetonitrile was added, after whirling at 1500 revolutions for 2 min, centrifuging was carried out for 15 min (3500 r/min), and a fixed volume of solution supernatant was taken for LC-MS/MS analysis.
Non-compartment model fitting was carried out on pharmacokinetic behaviors of the tested compounds, and DAS3.31 software was adopted to calculate main pharmacokinetic parameters (T1/2, Tmax, Cmax, AUClast, etc.).

A short description of data set [4]: Liver microsome stability, dogs. The conditions noted are these: Dogs liver microsomes; for CLint scaled / half-life: dog; for half-life: NADPH, 37° C. It counts as in vitro ADME. How it is done: as §1, §2, §3
The nature of data set [5]: Liver microsome stability, monkeys. The format is in vitro ADME. The conditions noted are these: Monkeys liver microsomes; for CLint scaled / half-life: monkey; for half-life: NADPH, 37° C. On the procedure:
as §1, §2, §3

Another data set deals with NCI-H1417 cells. Briefly: NCI-H1417 cell proliferation inhibition test (Celltiter GLO). Particulars: Homo sapiens, 168 h, NCI-H1417, 7 days culture. It counts as cell-based. On the procedure:
Research had confirmed that LSD1 played a crucial role in the occurrence process of various types of cancers, including small cell lung cancer (SCLC) and acute myeloid leukemia (AML). Therefore, a human small cell lung cancer (NCI-H1417) cell line was used to determine the ATP content in cells at different drug concentrations using a Celltiter GLO assay kit, and the cell activity was reflected by luminescence intensity. IC50 values of different compounds on the NCI-H1417 cells were calculated using inhibition rates. The inhibitory effects of the compounds in the present application on the proliferation of the NCI-H1417 cells were studied to evaluate the anti-tumor efficacy of the tested compounds at the cellular level.
• Day 1 Cells were seeded into the 384-well cell culture plate and placed in a 37° C. 5% CO2 cell incubator to be cultured overnight. • Day 0 The compound to be tested was prepared into a 10 mM mother liquid using DMSO, starting from 1 μM, diluted by 3 folds, with 10 concentration points and double duplicate wells. A diluted compound was added into the 384-well cell culture plate and placed in a 37° C. 5% CO2 cell incubator to be cultured for 7 days. The concentration of the DMSO in a cell culture system was 0.1%. • Day 7 Celltiter GLO was added into the 384-well cell culture plate according to a volume ratio of culture system:Celltiter GLO=1:1, light-shielded oscillation was carried out on a plate oscillator for 3 min, then the cell culture plate was placed at the room temperature for 30 min with light shielded, and the plate was read using a multifunctional microplate reader chemical light emitting module.
An inhibition percentage was calculated by utilizing luminescence intensity of the above DMSO group (with DMSO added), test group (with the tested compound and a positive control solution added) and blank group (not treating cells), a calculation formula being
Using a logarithm of the concentration as an X axis and the percentage inhibition rate as a Y axis, a dose-response curve was fitted using a formula log(inhibitor) vs. response-Variable slope (Four parameters) of analysis software Graphpad Prism 8 to obtain the IC50 value of each compound on NCI-H1417 proliferation inhibition activity.

Data set [6] in a line: Liver microsome stability, mice. It counts as in vitro ADME. Particulars: Mice liver microsomes; for CLint scaled / half-life: mouse; for half-life: NADPH, 37° C. On the procedure: as §1, §2, §3

SMILES strings stand for the structures. A value given as a limit tells only on which side of the number the result lay.

By CLint scaled is commonly meant a measure of how fast metabolising enzymes remove a compound, apart from limits set by blood flow. Read a high CLint scaled as faster metabolism. As a reminder, the half-life is the time needed for the level to fall by half in the phase considered. Higher therefore signals slow loss. The term AUC(0-t) denotes exposure summed from dosing to a finite time, without extrapolation to infinity. The low end stands for less exposure, the high end for more exposure. As a reminder, the Cmax is the maximum level reached in the sampled fluid or tissue. By Tmax is commonly meant the time from dosing to the highest level. As usually defined, the IC50 is the concentration needed to halve the response being measured. For the compound `CC(C)(O)Cn1ncc2cc(-c3c(C#N)cc(N4CCC(N)CC4)nc3-c3ccc(C#N)c(F)c3)c(F)cc21` [Compound 16, 6-(4-aminopiperid-1-yl)-2-(4-cyano-3-fluorophenyl)-3-(6-fluoro-1-(2-hydroxyl-2-methylpropyl)-1H-indazol-5-yl)isonicotinonitrile], in data set [1], the “Remaining (T = 60 min)” value was 72.1%, the CLint scaled was below 17.3 mL/min/kg and the half-life was above 2.42 h. Further, in data set [2], the “Remaining (T = 60 min)” value is given as 70.8%, the CLint scaled is below 8.6 mL/min/kg and the half-life is above 2.42 h. Moreover, in data set [3], the AUC(0-t) was found to be 561 ± 347 ng·h/mL, the concentration peaked (Cmax) at 69.9 ± 33.5 ng/mL, the Tmax worked out at 4 h and the half-life is 3.46 ± 0.02 h. In data set [4], the “Remaining (T = 60 min)” value was found to be 76.4%, the intrinsic clearance (CLint scaled) is below 13.8 mL/min/kg and the half-life is above 2.42 h. Further, in data set [5], the “Remaining (T = 60 min)” value was determined as 62.0%, the intrinsic metabolic clearance (CLint scaled) is 19.2 mL/min/kg and the half-life is 1.62 h. In the data set with NCI-H1417 cells, inhibition was half-maximal at 2.79 nM (IC50). In data set [6], the “Remaining (T = 60 min)” value is reported as 77.8%, the CLint scaled is below 38 mL/min/kg and the half-life was above 2.42 h.
Consider `CC(C)(O)Cn1nc(F)c2cc(-c3c(C#N)cc(N4CCC(N)CC4)nc3-c3ccc(C#N)c(F)c3)c(F)cc21` [Compound 36, 6-(4-aminopiperid-1-yl)-2-(4-cyano-3-fluorophenyl)-3-(3,6-difluoro-1-(2-hydroxyl-2-methylpropyl)-1H-indazol-5-yl)isonicotinonitrile], for which the “Remaining (T = 60 min)” value is 76.1% in data set [1]; 81.7% in data set [2]; 76.3% in data set [4]; 72.1% in data set [5]; 75.5% in data set [6]. In addition, the CLint scaled was below 17.3 mL/min/kg in data set [1]; below 8.6 mL/min/kg in data set [2]; below 13.8 mL/min/kg in data set [4]; 16.9 mL/min/kg in data set [5]; below 38 mL/min/kg in data set [6]. Also, the half-life in data set [1] was above 2.42 h; in data set [2], above 2.42 h; in data set [3], 3.57 ± 0.34 h; in data set [4], above 2.42 h; in data set [5], 1.84 h; in data set [6], above 2.42 h. For the same compound, the AUC(0-t) in data set [3] was determined as 769 ± 361 ng·h/mL. In data set [3], this compound yielded a maximum concentration (Cmax) of 100 ± 54.4 ng/mL. In data set [3], the time of peak concentration (Tmax) came out at 4.67 ± 1.15 h. In the data set with NCI-H1417 cells, this compound yielded an IC50 of 4 nM.
For the compound `COc1ccc(-c2c(-c3ccc(C#N)c(F)c3)nc(N3CCC(N)CC3)n(C)c2=O)cc1F` [CC-90011, reference compound], in data set [1], the “Remaining (T = 60 min)” value came out at 58.6%, the CLint scaled worked out at 31.2 mL/min/kg and the half-life came out at 1.33 h. Further, in data set [2], the “Remaining (T = 60 min)” value was 67.2%, the CLint scaled is 13.2 mL/min/kg and the half-life amounted to 1.57 h. Moreover, in data set [3], the AUC(0-t) worked out at 356 ± 46.5 ng·h/mL, the peak level (Cmax) was 48.9 ± 12.5 ng/mL, the Tmax is 3.33 ± 2.31 h and the half-life is 1.44 ± 0.52 h. Moreover, in data set [4], the “Remaining (T = 60 min)” value was 76.6%, the CLint scaled is 15.8 mL/min/kg and the half-life came to 2.1 h. Moreover, in data set [5], the “Remaining (T = 60 min)” value worked out at 56.8%, the CLint scaled was found to be 25 mL/min/kg and the half-life amounted to 1.25 h. The compound further gave an IC50 in the data set on NCI-H1417 cells of 22.9 nM. For the same compound, in data set [6], the “Remaining (T = 60 min)” value turned out to be 72.2%, the CLint scaled stood at 42.2 mL/min/kg and the half-life came out at 2.17 h.
